“And” between values parts separate entries of the source, which are not always exact repeats. Equal entries are not always repeated.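 Compound exposure: 48 hours, 5 concentrations, 96-well plates. Abbreviation: GI50, concentration required for 50% inhibition of growth. TGI marks complete inhibition of growth.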

The results in this text go back to PubChem BioAssay (NCI).

Test systems include COLO 205 colon; U251 CNS; SK-OV-3 ovarian; LXFL 529 NSCLC; NCI-H23 lung; SK-MEL-5 melanoma; CCRF-CEM leukemia; RXF-631 renal; K-562 leukemia; SW-620 colon; M19-MEL melanoma.
Holding throughout (test): inhibition of tumour cell growth, NCI panel, 48 h

For `O=C1/C(=C/c2ccccc2)CCC/C1=C\c1ccccc1`, the GI50 in the assay on COLO 205 colon is 6.31 µM and 15.1 µM; with U251 CNS it was 3.33 µM; in the assay on SK-OV-3 ovarian, 6.28 µM; in the assay with NCI-H23 lung, 6.88 µM; in the assay on SK-MEL-5 melanoma, 6.75 µM and 6.37 µM; with CCRF-CEM leukemia, 18.5 µM. Further, the GI50 in the assay with K-562 leukemia was 20.3 µM and 4.56 µM; in the assay with SW-620 colon, 6.37 µM and 3.19 µM. In addition, the TGI with COLO 205 colon is 11.5 µM and 32.7 µM and 35.2 µM; with U251 CNS it was 11.5 µM and 14.8 µM and 12.9 µM; in the assay with SK-OV-3 ovarian it was 12 µM and 43.1 µM and 46.7 µM; with LXFL 529 NSCLC, 15.8 µM; in the assay on NCI-H23 lung, 12.3 µM and 21.9 µM and 36.4 µM; with SK-MEL-5 melanoma it was 12 µM and 26.4 µM and 19.6 µM. The TGI in the assay with CCRF-CEM leukemia is 36.5 µM and 51.1 µM and > 100 µM; in the assay with RXF-631 renal, 50.5 µM; in the assay on K-562 leukemia, 36.5 µM and 32.9 µM and > 100 µM; in the assay on SW-620 colon it was 11.8 µM and 6.4 µM and 11.2 µM; in the assay with M19-MEL melanoma, 6.98 µM.
Regarding `CCOC(=O)C(=O)N=Nc1nc2c(O)c3ccccc3c(O)c2s1`, the TGI in the assay with COLO 205 colon amounted to 25.2 µM; with U251 CNS it was 14.1 µM; with SK-OV-3 ovarian, 34.4 µM; with LXFL 529 NSCLC, 3.3 µM; with NCI-H23 lung, 4.91 µM; in the assay on SK-MEL-5 melanoma it was 3.62 µM. Also, the TGI with CCRF-CEM leukemia was over 100 µM; in the assay with RXF-631 renal, 39.9 µM; with K-562 leukemia it was 12.7 µM; in the assay with SW-620 colon, 5.7 µM; with M19-MEL melanoma, 1.27 µM.
On to `COc1cccc(NC(=O)CC(=O)N2NC(C)C(N=Nc3cccc(C(=O)O)c3)C2=O)c1` (stereo not drawn), for which the TGI in the assay with COLO 205 colon, with U251 CNS, in the assay on SK-OV-3 ovarian, with LXFL 529 NSCLC, in the assay with NCI-H23 lung and in the assay on SK-MEL-5 melanoma was over 100 µM throughout. The TGI with CCRF-CEM leukemia, in the assay with RXF-631 renal, in the assay with K-562 leukemia, in the assay with SW-620 colon and with M19-MEL melanoma was over 100 µM each time.
For `O=C(O)C#CCO`, the TGI in the assay with COLO 205 colon, in the assay on U251 CNS, in the assay with SK-OV-3 ovarian, with LXFL 529 NSCLC, in the assay on NCI-H23 lung and with SK-MEL-5 melanoma was over 100 µM each time. The TGI in the assay with CCRF-CEM leukemia, in the assay with RXF-631 renal, in the assay on K-562 leukemia, with SW-620 colon and in the assay on M19-MEL melanoma was over 100 µM each time.
Consider `O=C(Nc1ccccc1Br)c1cccc([N+](=O)[O-])c1O`, for which the TGI was over 33.4 µM in the assay on COLO 205 colon; 14.9 µM in the assay with U251 CNS; over 57.8 µM with SK-OV-3 ovarian; 22.1 µM in the assay on LXFL 529 NSCLC; 6.31 µM in the assay with NCI-H23 lung; 5.11 µM in the assay with SK-MEL-5 melanoma. Besides, the TGI in the assay with CCRF-CEM leukemia is over 40.3 µM; in the assay with RXF-631 renal it was over 100 µM; in the assay on K-562 leukemia it was over 100 µM; in the assay with SW-620 colon, over 100 µM; with M19-MEL melanoma, 12.9 µM.
